Results taken from patent US20080026996A1, “Selective Vpac2 Receptor Reptide Agonists” (ELI LILLY AND COMPANY, priority 2004, published 2008).
pEC50, pIC50: −log10 of the molar value. Like-named read-outs stand apart in the source and are kept apart here. Where a SMILES comes first, the peptide text is derived from it. Where no end group is shown, it is not given here. [ ]: non-standard residue; d: D form. The star is where a group is joined. Met(O) = CS(=O)CC[C@H](N)C(=O)O; Hexanoyl = CCCCCC(=O)*

Assays:
human VPAC2 [1] = molecular target: T1, human VPAC2 (Homo sapiens, UniProt P41587); assay: Alpha screen cAMP in vitro potency, human VPAC2 receptor; assay type: cell-based; conditions: cAMP generation; single result from two analyses performed in a single run; read-out: Human VPAC2 Receptor: Alpha Screen EC50
T1 construct: expressed in transfected cells
T1 sequence (P41587 24-438): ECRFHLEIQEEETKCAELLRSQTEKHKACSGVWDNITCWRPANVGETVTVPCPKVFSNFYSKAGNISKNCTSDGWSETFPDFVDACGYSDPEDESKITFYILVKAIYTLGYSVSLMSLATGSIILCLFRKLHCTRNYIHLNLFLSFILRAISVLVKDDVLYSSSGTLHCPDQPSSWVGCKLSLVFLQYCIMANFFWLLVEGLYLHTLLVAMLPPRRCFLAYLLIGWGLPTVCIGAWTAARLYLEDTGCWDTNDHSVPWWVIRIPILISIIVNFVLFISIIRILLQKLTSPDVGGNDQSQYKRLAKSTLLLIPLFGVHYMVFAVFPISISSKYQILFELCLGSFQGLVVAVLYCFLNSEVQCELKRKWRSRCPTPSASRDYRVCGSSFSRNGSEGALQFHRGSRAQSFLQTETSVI
Protocol: Alpha screen: Cells are washed in the culture flask once with PBS. Then, the cells are rinsed with enzyme free dissociation buffer. The dissociated cells are removed. The cells are then spun down and washed in stimulation buffer. For each data point, 50,000 cells suspended in stimulation buffer are used. To this buffer, Alpha screen acceptor beads are added along with the stimuli. This mixture is incubated for 60 minutes. Lysis buffer and Alpha screen donor beads are added and are incubated for 60 to 120 minutes. The Alpha screen signal (indicative of intracellular cAMP levels) is read in a suitable instrument (e.g. AlphaQuest from Perkin-Elmer). Steps including Alpha screen donor and acceptor beads are performed in reduced light.

human VPAC2 [2] = molecular target: T1, human VPAC2; assay: Filter binding assay, membranes of stable VPAC2 cell line, 125I-labeled VIP tracer (Table 2)
Protocol: (§1) For this assay, the solutions and equipment include:
(§2) Presoak solution: 0.5% Polyethyleneamine in Aqua dest.
(§3) Buffer for flushing filter plates: 25 mM HEPES pH 7.4
(§4) Blocking buffer: 25 mM HEPES pH 7.4; 0.2% protease free BSA
(§5) Assay buffer: 25 mM HEPES pH 7.4; 0.5% protease free BSA
(§6) Dilution and assay plate: PS-Microplate, U form
(§7) Filtration Plate Multiscreen FB Opaque Plate; […] Type B Glasfiber filter
(§8) In order to prepare the filter plates, aspirate the presoak solution by vacuum filtration. Flush the plates twice with 200 μL flush buffer. Add 200 μL blocking buffer to the filter plate. The filter plate is then incubated […] for 1 hour at room temperature.
(§9) Fill the assay plate with 25 μL assay buffer, 25 μL membranes (2.5 μg) suspended in assay buffer, 25 μL compound (agonist) in assay buffer, and 25 μL tracer (about 40000 cpm) in assay buffer. Incubate the filled plate for 1 hour with shaking.
(§10) Conduct the transfer from assay plate to filter plate. Aspirate the blocking buffer by vacuum filtration and wash two times with flush buffer. Transfer 90 μL from the assay plate to the filter plate. Aspirate the 90 μL transferred from assay plate and wash three times with 200 μL flush buffer. Remove the plastic support. Dry for 1 hour at 60° C. Add 30 μL Microscint. Perform the count.

human VPAC1 = molecular target: T2, human VPAC1 (Homo sapiens, UniProt P32241); assay: Filter binding assay, membranes of cells transiently transfected with human VPAC1, 125I-labeled VIP tracer (Table 2); design: expressed in transfected cells
T2 sequence (P32241 31-457): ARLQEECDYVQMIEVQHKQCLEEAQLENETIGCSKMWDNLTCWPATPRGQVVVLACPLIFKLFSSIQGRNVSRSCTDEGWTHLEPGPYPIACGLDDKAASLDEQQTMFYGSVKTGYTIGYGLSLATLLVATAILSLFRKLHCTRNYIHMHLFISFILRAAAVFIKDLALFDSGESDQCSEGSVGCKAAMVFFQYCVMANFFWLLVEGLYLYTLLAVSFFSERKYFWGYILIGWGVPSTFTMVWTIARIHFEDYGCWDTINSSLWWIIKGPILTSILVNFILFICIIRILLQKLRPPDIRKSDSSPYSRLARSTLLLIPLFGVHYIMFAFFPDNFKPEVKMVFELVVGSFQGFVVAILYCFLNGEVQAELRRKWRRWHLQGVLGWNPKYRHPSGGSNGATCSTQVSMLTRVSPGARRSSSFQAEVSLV
Protocol: as §1, §2, §3, §4, §5, §6, §7, §8, §9, §10

human PAC1 = molecular target: T3, human PAC1 (Homo sapiens, UniProt P41586); assay: Filter binding assay, membranes of cells transiently transfected with human PAC1, 125I-labeled PACAP-27 tracer (Table 2); design: expressed in transfected cells
T3 sequence (P41586 21-468): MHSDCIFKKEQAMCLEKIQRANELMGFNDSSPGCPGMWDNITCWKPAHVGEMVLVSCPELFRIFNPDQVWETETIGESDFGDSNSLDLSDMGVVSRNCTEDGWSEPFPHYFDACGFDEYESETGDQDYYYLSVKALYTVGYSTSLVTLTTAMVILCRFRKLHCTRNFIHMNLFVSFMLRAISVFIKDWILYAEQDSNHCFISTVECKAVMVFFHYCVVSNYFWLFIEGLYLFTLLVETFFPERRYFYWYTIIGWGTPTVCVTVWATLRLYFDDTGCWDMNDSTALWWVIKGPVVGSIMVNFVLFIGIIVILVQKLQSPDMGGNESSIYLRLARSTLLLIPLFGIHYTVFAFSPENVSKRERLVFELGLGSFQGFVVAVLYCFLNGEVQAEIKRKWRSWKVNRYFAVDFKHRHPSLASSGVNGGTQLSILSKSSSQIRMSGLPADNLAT
Protocol: as §1, §2, §3, §4, §5, §6, §7, §8, §9, §10

[3] = read-out: Human VPAC2 Receptor Binding
[4] = read-out: Human VPAC1 Receptor Binding
[5] = read-out: Human PAC1 Receptor Binding

| Compound | pEC50 (human VPAC2 [1]) | pIC50 (human VPAC2 [2]; [3]) | pIC50 (human VPAC1; [4]) | pIC50 (human PAC1; [5]) | pIC50 (human VPAC2 [2]) | pIC50 (human VPAC1) | pIC50 (human PAC1) |
| --- | --- | --- | --- | --- | --- | --- | --- |
| CCCCCC(=O)N[C@@H](Cc1c[nH]cn1)C(=O)N[C@@H](CO)C(=O)N[C@@H](CC(=O)O)C(=O)N[C@@H](C)C(=O)N[C@H](C(=O)N[C@@H](Cc1ccccc1)C(=O)N[C@H](C(=O)N[C@@H](CC(=O)O)C(=O)N[C@@H](CC(N)=O)C(=O)N[C@@H](Cc1ccc(O)cc1)C(=O)N[C@H](C(=O)N[C@@H](CCCNC(=N)N)C(=O)N[C@@H](CC(C)C)C(=O)N[C@@H](CCCNC(=N)N)C(=O)N[C@@H](CCCCN)C(=O)N[C@@H](CCC(N)=O)C(=O)N[C@@H](CCSC)C(=O)N[C@@H](C)C(=O)N[C@@H](C)C(=O)N[C@@H](CCC(N)=O)C(=O)N[C@@H](CCCCN)C(=O)N[C@@H](Cc1ccc(O)cc1)C(=O)N[C@@H](CC(C)C)C(=O)N[C@@H](CC(N)=O)C(=O)N[C@@H](CCC(N)=O)C(=O)N[C@@H](CC(C)C)C(=O)N[C@@H](CCCCN)C(=O)N[C@@H](CCCCN)C(=O)NCC(=O)NCC(=O)N1CCC[C@H]1C(=O)N[C@@H](CO)C(=O)N[C@@H](CO)C(=O)NCC(=O)N[C@@H](C)C(=O)N1CCC[C@H]1C(=O)N1CCC[C@H]1C(=O)N1CCC[C@H]1C(=O)N[C@@H](CO)C(=O)O)[C@@H](C)O)[C@@H](C)O)C(C)C [Agonist P143] (Hexanoyl-HSDAVFTDNYTRLRKQMAAQKYLNQLKKGGPSSGAPPPS-OH; C-terminus assumed) | 10.00 | 9.30 | 6.22 | 5.97 | – | – | – |
| Hexanoyl-HSDAVFTDNYTRLRKQVAAKKYLQQIKNKRYGGPSSGAPPPS [Agonist P124] | 10.05 | 9.70 | 6.68 | 6.58 | – | – | – |
| HSDAVFTDNYTRLRKQVAAKKYLQSIKKGGPSSGAPPPS [Agonist P85] | – | 8.77 | 6.65 | – | – | – | – |
| HSDAVFTDNYTRLRRQVAAKKYLQSIKNKRYGGPSSGAPPPS [Agonist P72] | – | 8.82 | 6.80 | – | – | – | – |
| Hexanoyl-HSEAVFTDNYTRLRKQVAAKKYLQSIKNKRYGGPSSGAPPPS [Agonist P224] | 9.85 | 9.46 | 6.68 | 6.68 | – | – | – |
| Hexanoyl-HSDAVFTDNYTKLKKQVAAKKYLQSIKNKKYGGPSSGAPPPS [Agonist P103] | 9.92 | 10.10 | 6.64 | 6.48 | – | – | – |
| Hexanoyl-HSDAVFTDNYTRLRKQVAAKKVLQSIKNKRYGGPSSGAPPPS [Agonist P134] | – | 8.67 | 6.08 | 6.32 | – | – | – |
| H-H[dA]DAVFTDNYTRLRKQVAAKKYLQSIKNKRYGGPSSGAPPPS [Agonist P47] | – | 9.08 | 6.91 | – | – | – | – |
| Hexanoyl-HHSDAVFTDNYTRLLAKLALQKYLQSIKNKRYGGPSSGAPPPS [Agonist P191] | – | 7.22 | 5.89 | < 4.60 | – | – | – |
| Hexanoyl-HSDAVFTDNYTRLRKQVAAKKLLQSIKNKRYGGPSSGAPPPS [Agonist P132] | – | 8.82 | 6.21 | 5.99 | – | – | – |
| Hexanoyl-HSDAVFTDNYTRLRKQVAAKKTLQSIKNKRYGGPSSGAPPPS [Agonist P131] | – | 8.25 | 5.86 | 6.20 | – | – | – |
| IHSDAVFTDNYTRLRKQVAAKKYLQSIKNKRYGGPSSGAPPPS [Agonist P105] | – | – | – | – | 8.27 | 6.58 | 6.90 |
| HSDAVFTDNYTRLRKQVAAKKYLQSIKRGGPSSGAPPPS [Agonist P82] | – | 8.72 | 6.71 | – | – | – | – |
| [Met(O)]HSDAVFTDNYTRLRKQVAAKKYLQSIKNKRYGGPSSGAPPPS [Agonist P199] | – | – | – | – | 8.08 | 6.37 | 6.61 |
| HSDAVFTDNYTRLRRQVAARRYLQSIRNRRYGGPSSGAPPPS [Agonist P71] | – | 8.82 | 7.14 | – | – | – | – |
| CCCCCC(=O)N[C@@H](Cc1c[nH]cn1)C(=O)N[C@@H](CO)C(=O)N[C@@H](CC(=O)O)C(=O)N[C@@H](C)C(=O)N[C@H](C(=O)N[C@@H](Cc1ccccc1)C(=O)N[C@H](C(=O)N[C@@H](CC(=O)O)C(=O)N[C@@H](CC(N)=O)C(=O)N[C@@H](Cc1ccc(O)cc1)C(=O)N[C@H](C(=O)N[C@@H](CCCNC(=N)N)C(=O)N[C@@H](CC(C)C)C(=O)N[C@@H](CCCNC(=N)N)C(=O)N[C@@H](CCCCN)C(=O)N[C@@H](CCC(N)=O)C(=O)NC(C)(C)C(=O)N[C@@H](C)C(=O)N[C@@H](C)C(=O)N[C@@H](CCCCN)C(=O)N[C@@H](CCCCN)C(=O)N[C@@H](Cc1ccc(O)cc1)C(=O)N[C@@H](CC(C)C)C(=O)N[C@@H](CCC(N)=O)C(=O)N[C@@H](CO)C(=O)N[C@H](C(=O)N[C@@H](CCCCN)C(=O)N[C@@H](CC(N)=O)C(=O)N[C@@H](CCCCN)C(=O)N[C@@H](CCCNC(=N)N)C(=O)N[C@@H](Cc1ccc(O)cc1)C(=O)NCC(=O)NCC(=O)N1CCC[C@H]1C(=O)N[C@@H](CO)C(=O)N[C@@H](CO)C(=O)NCC(=O)N[C@@H](C)C(=O)N1CCC[C@H]1C(=O)N1CCC[C@H]1C(=O)N1CCC[C@H]1C(=O)N[C@@H](CO)C(=O)O)[C@@H](C)CC)[C@@H](C)O)[C@@H](C)O)C(C)C [Agonist P189] | – | 9.70 | 8.16 | 6.52 | – | – | – |
| H-HSDGVFTDNYTRLRKQVAAKKYLQSIKNKRYGGPSSGAPPPS [Agonist P102] | – | – | – | – | 7.81 | 6.74 | 7.26 |
| [dH]SDAVFTDNYTRLRKQVAAKKYLQSIKNKRYGGPSSGAPPPS [Agonist P84] | – | 7.70 | 6.33 | – | – | – | – |
| HSDAVFTDNYTREKEKVAAKKYLQSIKNKRYGGPSSGAPPPS [Agonist P87] | < 5.00 | 5.96 | 6.20 | – | – | – | – |
| Hexanoyl-HSDAVFTRNYTRLRKQVAAKKYLQSIKNKRYGGPSSGAPPPS [Agonist P162] | – | 8.43 | 8.29 | 6.73 | – | – | – |
| Hexanoyl-HSDAVFTLNYTRLRKQVAAKKYLQSIKNKRYGGPSSGAPPPS [Agonist P161] | – | 8.18 | 6.93 | 5.37 | – | – | – |
